Source: patent publication US11672785B2, “Tetrahydro-1H-pyrido [3,4-b]indole anti-estrogenic drugs” (Olema Pharmaceuticals, Inc., priority 2015, dated 2023)
“Also recorded” adds a separate entry of the source. Like-named read-outs stand apart in the source and are kept apart here.

Legend:
[1] = tested on: estrogen-responsive reporter gene, ERE-tk109-Luc; experiment: Inhibition of E2-induced transcription, ERE-tk109-Luc reporter in transfected MCF-7 cells; format: cell-based; details: Homo sapiens, MCF7
Description: Representative compounds were tested for their inhibitory activity of estrogen according to the assay methods described in Hodges-Gallagher, L., Valentine, C. […] Specifically, MCF-7 cells were transiently transfected with an estrogen-responsive reporter gene, ERE-tk109-Luc. […] Luciferase activity was normalized to activity of E2 alone and IC50's were calculated using the least squares fit method.

[2] = Free fraction of drug in human plasma, rapid equilibrium dialysis; format: in vitro ADME
Excerpt: (§1) Method for detecting free fraction of drug in plasma: Compounds were screened for binding to human and mouse plasma (Bioreclamation, IVT) using a rapid equilibrium dialysis device (Thermo Fisher Scientific) and compounds subsequently detected by LC-MS/MS. Percent free drug equals the concentration of compound in buffer chamber divided by that in the […] chamber×100.

[3] = Free fraction of drug in mouse plasma, rapid equilibrium dialysis; format: in vitro ADME
Excerpt: as §1

[4] = tested on: MCF-7 breast cancer cells; experiment: Inhibition of E2-stimulated proliferation of MCF-7 cells (Cyquant); format: cell-based; details: Homo sapiens, MCF7
Description: Proliferation of MCF-7 breast cancer cells was measured using Cyquant, a fluorescent DNA-binding dye (Thermo Fisher Scientific). MCF-7 cells were treated with antiestrogens in triplicate in hormone-depleted medium for 5-7 days in the presence of 100 pM E2. Fluorescent activity was normalized to the activity of E2 alone and IC50's were calculated using the least squares fit method.

ERα [5] = biological target: T1, ERα (Homo sapiens (Human), UniProt P03372); experiment: ERα levels in MCF-7 cells, in-cell western (Colorimetric In-Cell ELISA); format: cell-based; details: for Relative change in ERα levels in breast cells % Veh: MCF-7, 24 hours
Description: IC50's were calculated using the least squares fit method. Error bars represent S.E.M from triplicate wells.

ERα [6] = biological target: T1, ERα; experiment: ER degradation in MCF-7 cells, immunoblot; format: cell-based; details: 100 nM, 24 hours, serum-free medium
Description: MCF-7 cells were treated with 100 nM anti-estrogen for 24 hours in serum-free medium and protein extracts immunoblotted with D12 antibody to ERα and β-actin (Santa Cruz Biotechnology). The numbers below the blots represent the optical density of ERα bands of each treatment relative to percent vehicle after normalization to β-actin.

MCF-7 (HER2/neu) tumors = experiment: Xenograft study, Clone 18 (MCF7/Her2/neu) tumors in athymic ovariectomized nu/nu mice; format: in vivo; details: oral gavage, 10 mg/kg, FIGS. 5A-B
Description: Xenograft studies were conducted by the Preclinical Therapeutics Core at the University of California, San Francisco in accordance with the Institutional Animal Care and Use Committee (IACUC) guidelines. Clone 18 cells (MCF7/Her2/neu) cells were grown in culture and implanted into athymic ovariectomized nu/nu mice. To stimulate tumor growth 0.36 mg estradiol 90 day release pellets (Innovative Research, Saratoga, Fla.) were implanted along with cells. When tumors reached 150-250 cubic millimeters the pellets were exchanged for 0.18 mg estradiol 90 day release pellets and divided into groups of six mice per treatment group. One of those groups received vehicle only (0.5% CMC+8% DMSO), and Compound B and Compound C each had 2 groups treated with either 10 or 100 mg/kg compound. Compounds were administered by oral gavage twice daily, except once daily on weekends/holidays for the first 21 days, and once daily after day 21. Tumors and bodyweight were measured twice weekly.

[7] = Pharmacokinetics in BALB/c female mice, oral gavage; format: in vivo; details: for oral drug exposure, free fraction taken into account, vs equal dose of Compounds 107 and 102: mice, oral gavage, FIGS. 1A-1B
Description: Pharmacokinetics were studied in BALB/c female mice. For each arm, three BALB/c female mice were given 5 mg/kg of compound in 0.5% CMC formulation by oral gavage. Concentration of compounds in mouse plasma and their metabolites were analyzed at each time point using LC-MS/MS. The concentrations were adjusted for the free fraction of drug in mouse plasma (method below). Area under the curve was calculated using the trapezoidal rule for 0-24 hours.

[8] = tested on: AP activity in ECC-1 cells; experiment: Alkaline phosphatase (AP) assay in ECC-1 uterine cells, antagonist mode (co-treated with 500 pM E2); format: cell-based, human; details: 100 nM antiestrogen
Description: Method for performing the alkaline phosphatase (AP) assay. ECC-1 cells were trypsinized and resuspended in hormone-depleted media and plated at a density of 15 k cells per well into a 96-well plate for at least 4 hours. Cells were treated with antiestrogens for 3 days and plates were subsequently frozen at −80° C. […] AP activity was normalized to the activity of E2 alone.

[9] = tested on: AP activity in ECC-1 cells; experiment: Alkaline phosphatase (AP) assay in ECC-1 uterine cells, agonist mode; format: cell-based, human; details: mean of n
Description: Method for performing the alkaline phosphatase (AP) assay. ECC-1 cells were trypsinized and resuspended in hormone-depleted media and plated at a density of 15 k cells per well into a 96-well plate for at least 4 hours. Cells were treated with antiestrogens for 3 days and plates were subsequently frozen at −80° C. Thawed plates were incubated with a chromogenic substrate of AP, p-nitrophenyl phosphate (Thermo Fisher Scientific), for 40 minutes at 40° C. and absorbances were read at 405 nm. AP activity was normalized to the activity of E2 alone. […] A representative result for induction of AP activity in uterine cells (% E2) is shown below in tabular form: […]

[10] = MCF-7, 100 pM E2, 22 hours, read-out: inhibition of E2-induced transcription in breast cells IC50
[11] = Table 1, read-out: ERE-Luc IC50
[12] = mean of n, read-out: Inhibition of E2-stimulated transcription in breast cells pIC50 (converted)
[13] = MCF-7, 100 pM E2, 5-7 days, read-out: inhibition of E2-stimulated proliferation in breast cells IC50
[14] = Table 1, read-out: MCF-7 Proliferation IC50
[15] = mean of n, read-out: Inhibition of E2-stimulated proliferation in breast cells pIC50 (converted)
[16] = BALB/c mice, 5 mg/kg oral gavage

T1 sequence (P03372 whole entry): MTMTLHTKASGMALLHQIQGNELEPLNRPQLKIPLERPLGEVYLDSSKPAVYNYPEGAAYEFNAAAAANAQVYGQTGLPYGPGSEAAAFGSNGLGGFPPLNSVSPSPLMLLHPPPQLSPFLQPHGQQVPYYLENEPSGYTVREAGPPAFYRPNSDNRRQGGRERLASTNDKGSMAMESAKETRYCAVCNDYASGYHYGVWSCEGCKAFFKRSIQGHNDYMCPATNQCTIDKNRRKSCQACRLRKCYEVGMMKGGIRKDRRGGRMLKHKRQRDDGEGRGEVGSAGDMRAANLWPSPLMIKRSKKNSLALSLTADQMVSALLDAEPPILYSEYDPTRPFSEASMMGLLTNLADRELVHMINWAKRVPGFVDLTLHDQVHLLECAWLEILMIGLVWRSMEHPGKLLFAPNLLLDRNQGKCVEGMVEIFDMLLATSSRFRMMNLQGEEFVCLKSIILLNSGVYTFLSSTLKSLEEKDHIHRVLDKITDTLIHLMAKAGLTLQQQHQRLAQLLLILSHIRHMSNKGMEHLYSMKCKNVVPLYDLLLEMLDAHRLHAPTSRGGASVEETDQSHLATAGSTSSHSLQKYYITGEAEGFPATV

| SMILES | IC50 [1, 10] | IC50 [1, 11] | IC50 [1, 12] | fraction unbound [2] | fraction unbound [3] | IC50 [4, 13] | IC50 [4, 14] | IC50 [4, 15] | ER degradation in MCF-7 cells (in-cell western, FIG. 2) (ERα [5]; 24 hours) | Relative change in ERα levels in breast cells % Veh (ERα [5]) | ER degradation in MCF-7 cells (immunoblot, FIG. 7) (ERα [6]) | tumor shrinkage in xenografted mice (MCF-7 (HER2/neu) tumors) | 24 hour drug exposure compared to other compounds [7, 16] | half-life [7, 16] | oral bioavailability [7, 16] | oral drug exposure, free fraction taken into account, vs equal dose of Compounds 107 and 102 [7] | residual AP activity in uterine cells (% of E2 alone) [8] | Induction of Alkaline Phosphatase (AP) % E2 [9] |
| --- | --- | --- | --- | --- | --- | --- | --- | --- | --- | --- | --- | --- | --- | --- | --- | --- | --- | --- |
| C[C@@H]1Cc2c([nH]c3ccccc23)[C@@H](c2c(F)cc(/C=C/C(=O)O)cc2F)N1CC(C)(C)F [AZD9496, (E)-3-(3,5-Difluoro-4-((1R,3R)-2-(2-fluoro-2-methylpropyl)-3-methyl-2,3,4,9-tetrahydro-1H-pyrido[3,4-b]indol-1-yl)phenyl)acrylic Acid, reference compound] | 0.2 nM | 0.2 nM | 0.631 nM | 0.00308 | 0.00214 |  |  |  |  |  |  |  |  |  |  |  |  |  |
| CCCN1CC(Oc2ccc([C@@H]3c4[nH]c5ccccc5c4C[C@@H](C)N3CC(C)(C)F)cc2F)C1 [Compound A, (1R,3R)-2-(2-fluoro-2-methylpropyl)-1-(3-fluoro-4-((1-propylazetidin-3-yl)oxy)phenyl)-3-methyl-2,3,4,9-tetrahydro-1H-pyrido[3,4-b]indole] | 2.96 nM | 2.96 nM |  |  |  | 7.58 nM | 7.58 nM |  |  |  |  |  |  |  |  |  |  |  |
| CCCN1CC(Oc2ccc([C@@H]3c4[nH]c5ccccc5c4C[C@@H](C)N3CC(C)(C)F)cc2)C1 [Compound B, (1R,3R)-2-(2-fluoro-2-methylpropyl)-3-methyl-1-(4-((1-propylazetidin-3-yl)oxy)phenyl)-2,3,4,9-tetrahydro-1H-pyrido[3,4-b]indole] | 4.35 nM | 4.35 nM | 4.37 nM | 0.00036 | 0.00027 | 4.53 nM | 4.53 nM | 7.76 nM | degrades the estrogen receptor | 45 % Veh | degrades the estrogen receptor | outstandingly potent in shrinking human breast cancer xenografts; also recorded: shrinks MCF-7 (HER2/neu) tumors | better | high | high | substantially higher |  |  |
| C[C@@H]1Cc2c([nH]c3ccccc23)[C@@H](c2ccc(OCCN3CC(CF)C3)cc2)N1CC(C)(C)F [Compound C, (1R,3R)-2-(2-fluoro-2-methylpropyl)-1-(4-(2-(3-(fluoromethyl)azetidin-1-yl)ethoxy)phenyl)-3-methyl-2,3,4,9-tetrahydro-1H-pyrido[3,4-b]indole] | 10.7 nM | 10.7 nM | 8.13 nM | 0.00151 | 0.00092 | 1.3 nM | 14.5 nM | 11.7 nM |  | 42 % Veh |  | outstandingly potent in shrinking human breast cancer xenografts |  |  |  | substantially higher |  |  |
| C[C@@H]1Cc2c([nH]c3ccccc23)[C@@H](c2c(F)cc(OCCN3CC(CF)C3)cc2F)N1CC(C)(C)F [Compound D, (1R,3R)-1-(2,6-difluoro-4-(2-(3-(fluoromethyl)azetidin-1-yl)ethoxy)phenyl)-2-(2-fluoro-2-methylpropyl)-3-methyl-2,3,4,9-tetrahydro-1H-pyrido[3,4-b]indole] | 10 nM | 10 nM | 9.55 nM | 0.00044 | 0.00036 | 8.4 nM | 8.4 nM | 10.5 nM |  |  |  |  |  |  |  |  | 4.07 % E2 |  |
| C[C@]12CC[C@@H]3c4ccc(O)cc4C[C@@H](CCCCCCCCC[S+]([O-])CCCC(F)(F)C(F)(F)F)[C@H]3[C@@H]1CC[C@@H]2O (stereo partly drawn) [Fulvestrant, reference compound] | 1.4 nM |  | 1.91 nM | 1e-05 |  | 2.1 nM |  | 2.63 nM |  |  |  |  |  |  |  |  |  |  |
| CCCN1CC(Oc2cc(F)c([C@@H]3c4[nH]c5ccccc5c4C[C@@H](C)N3CC(C)(C)F)c(F)c2)C1 [Goodacre Compound 107, (1R,3R)-1-(2,6-difluoro-4-((1-propylazetidin-3-yl)oxy)phenyl)-2-(2-fluoro-2-methylpropyl)-3-methyl-2,3,4,9-tetrahydro-1H-pyrido[3,4-b]indole, reference compound] |  |  | 4.37 nM | 0.00013 | 0.00012 |  |  | 7.59 nM |  |  |  |  |  |  |  |  |  | 0.00 % E2 |
| Oc1ccc2c(c1)CC[C@H](c1ccccc1)[C@@H]2c1ccc(OCCN2CCCC2)cc1 [Lasofoxifene, reference compound] | 4.6 nM |  |  |  |  | 11 nM |  |  |  |  |  |  |  |  |  |  |  |  |
